≈ marks a conversion by molar mass, not a printed value.
Columns and labels:
MCF7 = assay: Cytotoxicity against human MCF7 cells; format: functional; conditions: for EC50: Homo sapiens, MCF7, read-out: ED50 (the source's name)
MIA PaCa-2 = assay: Cytotoxicity against human MIA PaCa2 cells; format: functional; conditions: for EC50: Homo sapiens, MIA PaCa-2, read-out: ED50 (the source's name)
PC-3 = assay: Cytotoxicity against human PC-3 cells; format: functional; conditions: for EC50: Homo sapiens, PC-3, read-out: ED50 (the source's name)
HT-29 = assay: Cytotoxicity against human HT-29 cells; format: functional; conditions: for EC50: Homo sapiens, HT-29, read-out: ED50 (the source's name)
A498 = assay: Cytotoxicity against human A-498 cells; format: functional; conditions: for EC50: Homo sapiens, A498, read-out: ED50 (the source's name)
[1] = (§1) Toxicity in brine shrimp; format: organism-based; conditions: artemia, in vivo
A549 = assay: Cytotoxicity against human A549 cells; format: functional; conditions: for EC50: Homo sapiens, A549, read-out: ED50 (the source's name)
Blattella germanica [2] = assay: Ratio of LT50 for Blattella germanica Muncie fifth instars to LT50 for Blattella germanica Jwax fifth instars; format: functional
Blattella germanica [3] = assay: Ratio of LT50 for Blattella germanica Muncie second instars to LT50 for Blattella germanica Jwax second instars; format: functional
Artemia = assay: as §1; format: organism-based; conditions: in vivo

CCCCCCCCCCCC[C@@H](O)[C@H]1CCC(C2CCC(CC(O)CCCCC[C@@H](O)CC3=C[C@H](C)OC3=O)O2)O1 (stereo partly drawn) [ROLLINACIN] gave an EC50 (MCF7) of 0.16 µg/mL (≈ 0.269 µM), an EC50 (MIA PaCa-2) of 2 µg/mL (≈ 3.36 µM) and an EC50 (PC-3) of 2.5 µg/mL (≈ 4.2 µM). It also gave an EC50 (HT-29) of 2.1 µg/mL (≈ 3.53 µM), an EC50 (A498) of 1.6 µg/mL (≈ 2.69 µM) and an LC50 [1] of 3.5 µg/mL (≈ 5.88 µM). The EC50 (A549) was 0.046 µg/mL (≈ 0.0773 µM).

With CCCCCCCCCCCC[C@H]1O[C@@H]([C@H](O)CCCC[C@H](O)CCCCC[C@@H](O)CC2=C[C@H](C)OC2=O)CC[C@H]1O [PYRANICIN] the EC50 (MCF7) was 0.39 µg/mL (≈ 0.653 µM), the EC50 (MIA PaCa-2) was 0.0013 µg/mL (≈ 0.00218 µM) and the EC50 (PC-3) was 0.41 µg/mL (≈ 0.687 µM). The EC50 (HT-29) was 1.2 µg/mL (≈ 2.01 µM), the EC50 (A498) was 0.18 µg/mL (≈ 0.302 µM) and the LC50 [1] was 0.3 µg/mL (≈ 0.503 µM). It also gave an EC50 (A549) of 0.28 µg/mL (≈ 0.469 µM).

For CCCCCCCCCC[C@H](O)[C@H](O)CCCC[C@H]1CC[C@H]([C@H]2CC[C@H]([C@H](O)CCCCC[C@@H](O)CC3=C[C@H](C)OC3=O)O2)O1 [GLABRACIN A], the ED50 (MCF7) was 4.2 ×10⁻⁶ ug/ml, the EC50 (MIA PaCa-2) was 1.8 µg/mL (≈ 2.82 µM) and the EC50 (PC-3) was 1.1 µg/mL (≈ 1.72 µM). For the same molecule, the ED50 (HT-29) was 5.7 ×10⁻⁶ ug/ml, the EC50 (A498) was 0.001 µg/mL (≈ 0.00157 µM) and the LC50 [1] was 0.13 µg/mL (≈ 0.203 µM). It also gave an ED50 (A549) of 2.8 ×10⁻⁶ ug/ml.

For CCCCCCCCCC[C@@H](O)[C@H]1CC[C@H]([C@H]2CC[C@H]([C@H](O)CCCCCCCC[C@@H](O)CC3=C[C@H](C)OC3=O)O2)O1 [PARVIFLORIN], the Ratio (Blattella germanica [2]) was 1.5 and the Ratio (Blattella germanica [3]) was 0.9.

With CCCCCCCCCCCC[C@@H](O)[C@H]1CC[C@H]([C@H](O)CCC[C@@H](O)[C@@H](O)CCCCC[C@@H](O)CC2=C[C@H](C)OC2=O)O1 [ANNOMURICIN E] the EC50 (MCF7) was 0.15 µg/mL (≈ 0.245 µM), the EC50 (MIA PaCa-2) was 0.24 µg/mL (≈ 0.392 µM) and the EC50 (PC-3) was 0.15 µg/mL (≈ 0.245 µM). The EC50 (HT-29) was 0.67 µg/mL (≈ 1.09 µM), the EC50 (A498) was 1.4 µg/mL (≈ 2.28 µM) and the LC50 [1] was 18.4 µg/mL (≈ 30 µM). For the same molecule, the EC50 (A549) was 0.11 µg/mL (≈ 0.179 µM).

Molecule CCCCCCCCCCCC[C@@H](O)[C@H]1CC[C@H]([C@H](O)CCCCCC[C@H](O)CCCCCCCC2=C[C@H](C)OC2=O)O1 has an ED50 (MCF7) of 5.8 ×10⁻⁷ ug/ml, an ED50 (MIA PaCa-2) of 1 ×10⁻⁵ ug/ml and an EC50 (PC-3) of 0.17 µg/mL (≈ 0.279 µM). For the same molecule, the EC50 (HT-29) was 0.14 µg/mL (≈ 0.23 µM), the EC50 (A498) was 0.15 µg/mL (≈ 0.246 µM) and the LC50 [1] was 0.13 µg/mL (≈ 0.213 µM). For the same molecule, the ED50 (A549) was 6.5 ×10⁻⁷ ug/ml.

CCCCC[C@H](O)[C@H](O)CCC[C@H](O)[C@H]1CC[C@H]([C@H]2CC[C@H]([C@H](O)CCCCCCCCCCCCC3=C[C@H](C)OC3=O)O2)O1 (stereo in doubt; 91) [PURPUREDIOLIN] showed an ED50 (MCF7) of 2.5 ×10⁻⁴ ug/ml, an ED50 (MIA PaCa-2) of 3 µg/mL (≈ 4.7 µM) and an ED50 (PC-3) of 1.1 µg/mL (≈ 1.72 µM). For the same molecule, the EC50 (HT-29) was 0.0046 µg/mL (≈ 0.0072 µM), the ED50 (A498) was 1.5 µg/mL (≈ 2.35 µM) and the LC50 [1] was 0.43 µg/mL (≈ 0.673 µM). For the same molecule, the ED50 (A549) was 1.6 µg/mL (≈ 2.5 µM).

With CCCCCCCCCCCC[C@@H](O)[C@H]1CC[C@H]([C@H](O)CCCCCC(O)CCCCCCC2=C[C@H](C)OC2=O)O1 (stereo partly drawn) the EC50 (MCF7) was 2.2 µg/mL (≈ 3.79 µM), the EC50 (MIA PaCa-2) was 2.9 µg/mL (≈ 4.99 µM) and the EC50 (PC-3) was 2.7 µg/mL (≈ 4.65 µM). For the same molecule, the EC50 (HT-29) was 1.7 µg/mL (≈ 2.93 µM), the EC50 (A498) was 2.2 µg/mL (≈ 3.79 µM) and the LC50 [1] was 8.9 µg/mL (≈ 15.3 µM). The EC50 (A549) was 3.9 µg/mL (≈ 6.71 µM).

Molecule CCCCCCCCCCCCCCCC[C@@H](O)[C@H]1CC[C@H]([C@H](O)CC[C@H](O)CCCCC[C@@H](O)CC2=C[C@H](C)OC2=O)O1 [GONIOTETRACIN] has an EC50 (MCF7) of 1.7 µg/mL (≈ 2.72 µM), an EC50 (MIA PaCa-2) of 0.026 µg/mL (≈ 0.0416 µM) and an EC50 (PC-3) of 0.021 µg/mL (≈ 0.0336 µM). For the same molecule, the EC50 (HT-29) was 1.5 µg/mL (≈ 2.4 µM), the EC50 (A498) was 1.5 µg/mL (≈ 2.4 µM) and the LC50 [1] was 0.2 µg/mL (≈ 0.32 µM). The EC50 (A549) was 0.39 µg/mL (≈ 0.624 µM).

CCCCCCCCCCCC[C@@H](O)[C@H]1CC[C@H]([C@H](O)CCC(O)CCCC(O)CCC[C@@H](O)CC2=C[C@H](C)OC2=O)O1 (stereo partly drawn) [MURICAPENTOCIN] showed an EC50 (MCF7) of 1.9 µg/mL (≈ 3.1 µM), an EC50 (MIA PaCa-2) of 0.05 µg/mL (≈ 0.0816 µM) and an EC50 (PC-3) of 0.45 µg/mL (≈ 0.734 µM). For the same molecule, the EC50 (HT-29) was 0.071 µg/mL (≈ 0.116 µM), the EC50 (A498) was 1.7 µg/mL (≈ 2.77 µM) and the LC50 [1] was 1.8 µg/mL (≈ 2.94 µM). It also gave an EC50 (A549) of 0.19 µg/mL (≈ 0.31 µM).

Molecule CCCCCCCCCC[C@@H](O)[C@H]1CC[C@H]([C@H](O)CCCC[C@H](O)CCCCCCC[C@@H](O)CC2=C[C@H](C)OC2=O)O1 [GLACIN A] has an EC50 (MCF7) of 0.0044 µg/mL (≈ 0.00737 µM), an EC50 (MIA PaCa-2) of 0.0086 µg/mL (≈ 0.0144 µM) and an EC50 (PC-3) of 0.0098 µg/mL (≈ 0.0164 µM). The EC50 (HT-29) was 2.3 µg/mL (≈ 3.85 µM), the EC50 (A498) was 1.3 µg/mL (≈ 2.18 µM) and the LC50 [1] was 0.11 µg/mL (≈ 0.184 µM). It also gave an EC50 (A549) of 1.5 µg/mL (≈ 2.51 µM).

Work on CCCCC[C@H](O)[C@H](O)CCC[C@H](O)[C@H]1CC[C@H]([C@H]2CC[C@H]([C@H](O)CCCCCCCCCCCCC3=C[C@H](C)OC3=O)O2)O1 (stereo in doubt; 97) [PURPUREDIOLIN] yielded an EC50 (MCF7) of 0.92 µg/mL (≈ 1.44 µM), an ED50 (MIA PaCa-2) of 1.4 µg/mL (≈ 2.19 µM) and an ED50 (PC-3) of 3.5 ×10⁻¹ ug/ml. For the same molecule, the EC50 (A498) was 1.4 µg/mL (≈ 2.19 µM), the LC50 (Artemia) was 7 ×10⁻² ug/ml and the ED50 (A549) was 4.4 ×10⁻¹ ug/ml.

In the case of CCCCCCCCCCCC[C@H](O)[C@@H]1CC[C@@H]([C@@H](O)CCCCCCC(O)CCCCC[C@@H](O)CC2=C[C@H](C)OC2=O)O1 (stereo partly drawn) [ANNOMONTACIN], the Ratio (Blattella germanica [2]) is reported as 0.2 and the Ratio (Blattella germanica [3]) is reported as 0.6.

CCCCCCCCCCCCCC[C@H](O)CCCCCCC[C@H](O)CCCCC[C@@H](O)CC1=C[C@H](C)OC1=O [LONGANIN] showed an EC50 (MCF7) of 3.4 µg/mL (≈ 6 µM), an EC50 (MIA PaCa-2) of 0.011 µg/mL (≈ 0.0194 µM) and an EC50 (PC-3) of 0.4 µg/mL (≈ 0.706 µM). It also gave an EC50 (HT-29) of 0.61 µg/mL (≈ 1.08 µM), an EC50 (A498) of 0.039 µg/mL (≈ 0.0688 µM) and an LC50 [1] of 12 µg/mL (≈ 21.2 µM). The EC50 (A549) was 0.011 µg/mL (≈ 0.0194 µM).

Work on CCCCCCCCCCCC/C=C\CC[C@@H](O)[C@H]1CC[C@H]([C@H](O)CC[C@H](O)CCCCC[C@H]2CC(CC(C)=O)C(=O)O2)O1 (mixture of isomers) yielded an EC50 (MCF7) of 3.7 µg/mL, an EC50 (MIA PaCa-2) of 0.045 µg/mL and an EC50 (PC-3) of 1.5 µg/mL. It also gave an EC50 (HT-29) of 2.9 µg/mL, an EC50 (A498) of 2.2 µg/mL and an LC50 [1] of under 0.3 µg/mL. The EC50 (A549) was 1.8 µg/mL.

In the case of CCCCCCCCCC[C@H](O)[C@H]1CC[C@H]([C@H](O)CC[C@H](O)[C@@H]2CC[C@@H](CCCCC[C@@H](O)CC3=C[C@H](C)OC3=O)O2)O1 [TRILOBALICIN], the ED50 (MCF7) is reported as 1.6 ×10⁻⁷ ug/ml, the EC50 (MIA PaCa-2) is reported as 0.28 µg/mL (≈ 0.458 µM) and the EC50 (PC-3) is reported as 0.98 µg/mL (≈ 1.6 µM). For the same molecule, the EC50 (HT-29) was 2.3 µg/mL (≈ 3.77 µM), the EC50 (A498) was 0.006 µg/mL (≈ 0.00982 µM) and the LC50 [1] was 5.8 µg/mL (≈ 9.49 µM). For the same molecule, the ED50 (A549) was 5.8 ×10⁻⁸ ug/ml.

CCOP(=S)(OCC)Oc1nc(Cl)c(Cl)cc1Cl [CHLORPYRIFOS] gave a Ratio (Blattella germanica [2]) of 8 and a Ratio (Blattella germanica [3]) of 3.8.
